Like-named read-outs stand apart in the source and are kept apart here. Where a SMILES comes first, the peptide text is derived from it.

One series relates to Bumblebee. Put plainly: Bee oral toxicity test adapted from OECD Test No. 247 (Bumblebee, Acute Oral Toxicity Test). Type of series: in vivo. The settings on record: after 96 hours of application, compared to Imidacloprid (FIG. 10). The method, then: Bee oral testing protocol was carried out adapted from OECD Test No. 247: Bumblebee, Acute Oral Toxicity Test. The toxicity of SB—P-46 was compared with a negative control of sucrose or vehicle, and with a current commercial insecticide Imidacloprid.

The test system of series [1] is Amrasca biguttula (leaf hopper). Conditions: unformulated; 3 and 7 days after application (FIG. 16). The source says: (§1) The data has been processed in the ARM Field Trials software under license.
The test system of the next series is Aphis fabae. The settings on record: unformulated; for reduction in Aphis fabae numbers as a percentage of untreated control crop: vining peas.
Excerpt: as §1

In the next series the test system is Aphis gossypii. The settings on record: Greece; cotton; unformulated; counted 3 days following application (FIG. 14).
Excerpt: as §1
AgriScience conducted a field trial in Greece, investigating the efficacy of insecticidal peptides on aphids on cotton crop.

The subject of another series is Myzus persicae. Conditions: unformulated peptide; leaf dip; mortality assessed at 72, 96 and 120 hours; compared to vehicle and Spirotetramat (FIGS. 6 and 7).

Description for Myzus persicae: Dip a 2.5 cm leaf disc into 3 ml of treatment solution allowing the treatment to coat the leaf. Leave the disc to dry for 1 hour and place onto the set agar. Place insects (aphids) onto each of the leaf discs. Each unit is sealed with a close-fitting, ventilated lid. Place the agar dishes in a small plastic tray lined with moist tissue paper and ensure the water trays in the bottom of the incubator are filled with clean water and place within the incubator. An assessment of mortality is made at 72, 96 and 120 hours. Leaf dip assays were performed with unformulated SB—P-46, and compared to a negative control vehicle and a current commercial insecticide Spirotetramat.

Take `CC(C)C[C@H](NC(=O)[C@H](CCCNC(=N)N)NC(=O)[C@@H]1CCCN1C(=O)[C@H](CO)NC(=O)[C@H](Cc1ccccc1)NC(=O)[C@@H]1CCCN1C(=O)[C@@H]1CCCN1C(=O)[C@H](CO)NC(=O)[C@H](Cc1ccc(O)cc1)NC(=O)[C@@H]1CCCN1C(=O)[C@@H]1CCCN1C(=O)[C@@H](N)CO)C(N)=O` [SB—P-46, [Hy]-SPPYSPPFSPRL-[NH2]] (H-SPPYSPPFSPRL-NH2): in the series with Bumblebee, the “toxicity to bees (% survival)” value is given as “far lower toxicity”. Further, in series [1], the “activity against naturally infested Amrasca biguttula (leaf hopper)” value was “acted comparably to Flipper insecticide”. For the same compound, the “reduction in Aphis fabae numbers as a percentage of untreated control crop” value with Aphis fabae (Field trial 1, Chatteris location, counted 14 days following application (FIG. 11)) is “performed comparably to the conventional insecticides Stealth and Teppeki”; in the series on Aphis fabae (Wigtoft location, counted 4 days following application (FIG. 12)), “similarly efficacious activity”; in the series with Aphis fabae (third PGRO trial (slot trial), Holbeach location, counted 7 days following application, low aphid infestation (FIG. 13)), “performed as efficaciously as the conventional pesticides tested”. The “activity against naturally infested Aphis fabae” value with Aphis fabae (further field trials, 4 and 8 days after application (FIG. 15)) is on record as “acted comparably to Hallmark Zeon insecticide”. Moreover, the “reduction in Aphis gossypii numbers as a percentage of untreated control crop” value with Aphis gossypii was “close efficacy to the conventional pesticide equivalent tested”. The “activity against Myzus persicae (mortality)” value with Myzus persicae was “good activity”.

For the origin of these results see US12281143B1, “Insect neuropeptides 1” (Solasta Bio Limited, priority 2023, dated 2025).
